Reference: patent publication US20210069213A1, “COMPOSITION AND METHOD OF TREATMENT FOR DRY A.M.D. (AGE RELATED MACULAR DEGENERATION)” (EYE CO PTY LTD, priority 2018, published 2021)
Entries after “also recorded” stand apart in the source; their conditions may differ.

System: Sprague-Dawley rats exposed to bright continuous light
Assay: Light damage (photo-oxidative damage) model of dry AMD, corticosteroid treatment vs vehicle
Assay type: in vivo
Conditions: after photo-oxidative damage; FA compared with TA; listed as FA
Method: All experiments conducted were in accordance with the ARVO Statement for the Use of Animals in Ophthalmic and Vision Research. Albino Sprague-Dawley (SD) rats aged from […] were exposed to bright continuous light (BCL) at 1000 lux. The rats were born and reared in dim cyclic light conditions (12 h light:12 h dark) with an ambient light level of approximately 5 lux. Exposure to BCL was conducted on animals aged between post-natal days (P) 90-150. Prior to BCL exposure, rats were dark adapted for a minimum of 15 h then transferred to individual cages designed to allow light to enter unimpeded. There were no areas of shadow in the cages; pupillary dilation was not performed. BCL exposure commenced consistently at 9:00 am, and was achieved using a cold-white fluorescent light source positioned above the cages (18 W, Cool White; TFC), at an intensity of approximately 1000 lux at the cage floor. BCL exposure was maintained over a period of 24 h, after which time the animals were immediately returned to dim cyclic conditions for the post-exposure period.
Age-matched, dim-reared animals served as control samples.
Animals were euthanatized by overdose of barbiturate administered by an intraperitoneal injection (60 mg/kg bodyweight; Valabarb; Virbac Animal Health, Regents Park, NSW, Australia).
Eyes were oriented and embedded in O.C.T. compound (Tissue-Tek, Sakura, Japan) then snap frozen in liquid nitrogen and cryosectioned at […] Retinas for RNA extraction were immediately deposited in RNA stabilizer (RNAlater; Ambion, Austin, Tex.), prechilled on ice, and stored according to the manufacturer's instructions. RNA was then extracted from each sample. The samples were incubated at 4° C. overnight to allow adequate penetration of the preservative, and then stored at […] until required. The samples were processed in batches encompassing the entire time course, to ensure comparability. […]
TUNEL labeling was used to quantify photoreceptor apoptosis in cryosections, during and after BCL, with a protocol published previously. […]

Which “prevention of macrophage recruitment (IBA1)” value does the source give for `CC(=O)OCC(=O)[C@@]1(O)CC[C@H]2[C@@H]3CCC4=CC(=O)CC[C@]4(C)[C@@]3(F)[C@@H](O)C[C@@]21C` [Fludrocortisone acetate, 9-α-Fiuoro-11 β. 17 α, 21-trihydroxy-4-pregnene-3, 20 dione acetate] here?
The value was “more effective than TA; also recorded: superior”.

And the “prevention of photoreceptor death / cell death (TUNEL)” value?
The value was “more effective than TA; also recorded: superior”.

And the “retinal function (ERG, a- and b-wave amplitude)” value?
Its value is “preserves retinal function; also recorded: superior”.
